What was measured:
Experiment in all cases: Bliss excess, mean over the matrix (fraction); higher = more synergy
EW-7 (Ewing's Sarcoma) = tested on: EW-7 (Ewing's Sarcoma)
Outline: (§1)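 Cell lines grown in DMEM/F12 or RPMI with 10% FBS were plated in 1536-well plates and held 24 hours at 37°C, 5% CO2 before 72 hours of exposure to two-drug dose matrices, with DMSO typically at 0.2%. CellTiter-Glo 2.0 luminescence gave viability, which was converted to inhibition. Vehicle wells were set to 0 and blank wells to 1. Combination Emax is the second-highest inhibition in the matrix, and Bliss excess is the observed combination effect minus the expected EA + EB − EA·EB, where EA and EB are the single-agent effects.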

[1] = tested on: G-402 (Other Solid Carcinomas)
Outline: as §1

[2] = tested on: JHH-2 (Hepatocellular Carcinoma)
Outline: as §1

NB13 (Neuroblastoma) = tested on: NB13 (Neuroblastoma)
Outline: as §1

[3] = tested on: LU-165 (Small Cell Lung Carcinoma)
Outline: as §1

[4] = tested on: KYSE-140 (Esophageal Squamous Cell Carcinoma)
Outline: as §1

[5] = tested on: HCC1395 (Breast Carcinoma)
Outline: as §1

[6] = tested on: SW620 (Colorectal Carcinoma)
Outline: as §1

IM-9 (Non-Cancerous) = tested on: IM-9 (Non-Cancerous)
Outline: as §1

[7] = tested on: GA-10 (Burkitt's Lymphoma)
Outline: as §1

WM1552C (Melanoma) = tested on: WM1552C (Melanoma)
Outline: as §1

[8] = tested on: JVM-2 (B-Cell Non-Hodgkin's Lymphoma)
Outline: as §1

[9] = tested on: MHH-ES-1 (Ewing's Sarcoma)
Outline: as §1

5637 (Bladder Carcinoma) = tested on: 5637 (Bladder Carcinoma)
Outline: as §1

EB2 (Burkitt's Lymphoma) = tested on: EB2 (Burkitt's Lymphoma)
Outline: as §1

[10] = tested on: DU-4475 (Breast Carcinoma)
Outline: as §1

[11] = tested on: ESO26 (Esophageal Adenocarcinoma)
Outline: as §1

[12] = tested on: CESS (Acute Myeloid Leukemia)
Outline: as §1

A101D (Melanoma) = tested on: A101D (Melanoma)
Outline: as §1

[13] = tested on: SK-HEP-1 (Hepatocellular Carcinoma)
Outline: as §1

| SMILES | Bliss excess (EW-7 (Ewing's Sarcoma)) | Bliss excess [1] | Bliss excess [2] | Bliss excess (NB13 (Neuroblastoma)) | Bliss excess [3] | Bliss excess [4] | Bliss excess [5] | Bliss excess [6] | Bliss excess (IM-9 (Non-Cancerous)) | Bliss excess [7] | Bliss excess (WM1552C (Melanoma)) | Bliss excess [8] | Bliss excess [9] | Bliss excess (5637 (Bladder Carcinoma)) | Bliss excess (EB2 (Burkitt's Lymphoma)) | Bliss excess [10] | Bliss excess [11] | Bliss excess [12] | Bliss excess (A101D (Melanoma)) | Bliss excess [13] |
| --- | --- | --- | --- | --- | --- | --- | --- | --- | --- | --- | --- | --- | --- | --- | --- | --- | --- | --- | --- | --- |
| NC1(C(=O)N[C@@H](CCO)c2ccc(Cl)cc2)CCN(c2ncnc3[nH]ccc23)CC1 [Capivasertib] + CC(=O)c1c(C)c2cnc(Nc3ccc(N4CCNCC4)cn3)nc2n(C2CCCC2)c1=O [Palbociclib] (first compound max 10 µM, 7x7, partner max 10 µM) | 0.01 | -0.0357 | -0.0028 | -0.076 | -0.0886 | -0.0427 | 0.0116 | -0.019 | 0.0229 | -0.0029 | 0.0025 | -0.036 | 0.0257 | -0.0521 | -0.0213 | -0.0335 | -0.0512 | -0.0306 | 0.0157 | -0.109 |
| CC(=O)c1c(C)c2cnc(Nc3ccc(N4CCNCC4)cn3)nc2n(C2CCCC2)c1=O [Palbociclib] + CC1(C)CCC(CN2CCN(c3ccc(C(=O)NS(=O)(=O)c4ccc(NCC5CCOCC5)c([N+](=O)[O-])c4)c(Oc4cnc5[nH]ccc5c4)c3)CC2)=C(c2ccc(Cl)cc2)C1 [Venetoclax] (first compound max 10 µM, 7x7, partner max 1 µM) | 0.0071 | 0.0369 | 0.0031 | -0.103 | -0.0502 | -0.0285 | -0.0472 | -0.0248 | 0.0389 | -0.0895 | -0.0334 | -0.0273 | 0.0193 | -0.0149 | -0.044 | -0.0162 | -0.0364 | -0.0272 | -0.0025 | -0.167 |
| COc1nnc2ccc(N3CCC(c4ccc(OCCN5CCN(C)C(=O)[C@H]5C)cc4)CC3)nn12 [AZD5153] + CCN(CCO)CCCOc1ccc2c(Nc3cc(CC(=O)Nc4cccc(F)c4)[nH]n3)ncnc2c1 [AZD2811] (first compound max 1 µM, 7x7, partner max 1 µM) | 0.0274 | -0.0728 | -0.0496 | -0.0336 | -0.06 | -0.0087 | -0.0005 | -0.0002 | -0.111 | -0.122 | -0.0615 | -0.0498 | -0.0345 | -0.107 | -0.102 | 0.0934 | 0.0002 | 0.0259 | -0.104 | -0.103 |
| NC1(C(=O)N[C@@H](CCO)c2ccc(Cl)cc2)CCN(c2ncnc3[nH]ccc23)CC1 [Capivasertib] + CC(C)n1c(=O)n(C)c2cnc3cc(F)c(-c4ccc(OCCCN5CCCCC5)nc4)cc3c21 [AZD1390] (first compound max 10 µM, 7x7, partner max 0.3 µM) | -0.0311 | -0.0731 | -0.0449 | -0.0584 | -0.0456 | -0.033 | 0.0154 | -0.0529 | -0.0516 | -0.028 | -0.0474 | -0.0662 | -0.0515 | -0.052 | 0.0109 | 0.0233 | -0.053 | -0.0835 | -0.118 | -0.0321 |
| COc1nnc2ccc(N3CCC(c4ccc(OCCN5CCN(C)C(=O)[C@H]5C)cc4)CC3)nn12 [AZD5153] + C=CCn1c(=O)c2cnc(Nc3ccc(N4CCN(C)CC4)cc3)nc2n1-c1cccc(C(C)(C)O)n1 [AZD1775] (first compound max 1 µM, partner max 1 µM) | -0.0403 | -0.0226 | -0.1 | -0.0645 | 0.0026 | -0.0161 | -0.113 | -0.0753 | -0.107 | -0.0367 | -0.0776 | -0.0959 | -0.0662 | -0.0321 | -0.135 | 0.0311 | -0.0501 | -0.0643 | -0.0825 | -0.0166 |
| COc1cccc(OCCCN)c1-c1cc(Nc2cnc(C#N)cn2)n[nH]1 [Prexasertib] + C=CCn1c(=O)c2cnc(Nc3ccc(N4CCN(C)CC4)cc3)nc2n1-c1cccc(C(C)(C)O)n1 [AZD1775] (first compound max 1 µM, partner max 1 µM) | 0.0157 | 0.0504 | 0.0869 | -0.0347 | -0.0566 | 0.0329 | 0.0111 | 0.0478 | 0.0644 | 0.0653 | 0.0412 | -0.0174 | 0.0402 | 0.0167 | 0.0249 | 0.114 | 0.0278 | -0.0059 | 0.0932 | 0.0775 |
| CN(C)CCCOc1ccc(-c2ccc3ncc4c(c3c2)n(C2CCOCC2)c(=O)n4C)cn1 [AZD0156] + C[C@@H]1COCCN1C2=NC(=NC(=C2)C3(CC3)[S@](=N)(=O)C)C4=C5C=CNC5=NC=C4 [AZD6738] (first compound max 1 µM, 7x7, partner max 10 µM) | 0.0318 | -0.0306 | -0.0249 | 0.058 | -0.0515 | 0.0481 | -0.0245 | 0.0308 | 0.05 | 0.0921 | 0.0189 | 0.0025 | 0.0361 | -0.0155 | -0.0562 | -0.0587 | 0.0158 | 0.0386 | 0.0058 | -0.0034 |
| COc1nnc2ccc(N3CCC(c4ccc(OCCN5CCN(C)C(=O)[C@H]5C)cc4)CC3)nn12 [AZD5153] + Cn1cnc2c(F)c(Nc3ccc(Br)cc3Cl)c(C(=O)NOCCO)cc21 [Selumetinib] (first compound max 1 µM, 7x7, partner max 10 µM) | -0.032 | -0.0421 | 0.0024 | -0.0616 | -0.0494 | -0.028 | -0.024 | -0.0083 | 0.0322 | -0.0813 | -0.063 | 0.0655 | -0.0114 | 0.0132 | -0.0216 | 0.0219 | -0.0727 | -0.0651 | -0.081 | -0.0764 |
| CC1(C)CCC(CN2CCN(c3ccc(C(=O)NS(=O)(=O)c4ccc(NCC5CCOCC5)c([N+](=O)[O-])c4)c(Oc4cnc5[nH]ccc5c4)c3)CC2)=C(c2ccc(Cl)cc2)C1 [Venetoclax] + Cn1cnc2c(F)c(Nc3ccc(Br)cc3Cl)c(C(=O)NOCCO)cc21 [Selumetinib] (first compound max 1 µM, 7x7, partner max 3 µM) | -0.0058 | -0.0298 | 0.016 | -0.0837 | -0.0588 | -0.0042 | -0.0171 | -0.0414 | 0.111 | -0.0622 | -0.0062 | 0.0617 | -0.0424 | -0.0194 | 0.0012 | -0.0057 | -0.0133 | -0.0674 | -0.0254 | -0.0378 |
| COc1cccc(OCCCN)c1-c1cc(Nc2cnc(C#N)cn2)n[nH]1 [Prexasertib] + C[C@@H]1COCCN1C2=NC(=NC(=C2)C3(CC3)[S@](=N)(=O)C)C4=C5C=CNC5=NC=C4 [AZD6738] (first compound max 1 µM, 7x7, partner max 10 µM) | -0.0437 | -0.0253 | -0.0136 | -0.0603 | -0.0402 | -0.0191 | -0.0399 | 0.013 | -0.003 | -0.0023 | -0.0372 | -0.0625 | -0.0161 | -0.0304 | -0.0478 | -0.022 | -0.0681 | -0.0065 | -0.0066 | 0.0447 |
| CC1(C)CCC(CN2CCN(c3ccc(C(=O)NS(=O)(=O)c4ccc(NCC5CCOCC5)c([N+](=O)[O-])c4)c(Oc4cnc5[nH]ccc5c4)c3)CC2)=C(c2ccc(Cl)cc2)C1 [Venetoclax] + Cc1cc2ncnn2cc1Nc1ncc2c(n1)n(C1CCOCC1)c(=O)n2C [AZD7648] (first compound max 1 µM, 7x7, partner max 10 µM) | -0.0345 | -0.0359 | -0.069 | 0.0559 | -0.0259 | -0.0044 | -0.0491 | -0.0452 | 0.0403 | -0.0603 | -0.0571 | -0.025 | -0.0189 | -0.0504 | -0.0338 | 0.0152 | -0.0336 | -0.0288 | -0.0394 | -0.0387 |
| Cc1c2c(nn1C)CSCc1cc(n(C)n1)CSc1cc(c3ccccc3c1)OCCCc1c(C(=O)O)n(C)c3c-2c(Cl)ccc13 [AZD5991] + C1CN(CCC1(C(=O)N[C@@H](CCO)C2=CC=C(C=C2)Cl)N)C3=NC=NC4=C3C=CN4 [Capivasertib] (first compound max 1 µM, 7x7, partner max 3 µM) | 0.0459 | 0.0445 | 0.0621 | 0.0719 | 0.0034 | 0.0196 | -0.003 | -0.0325 | -0.0616 | 0.0138 | -0.004 | 0.0245 | 0.0008 | -0.004 | -0.0375 | -0.0023 | -0.0014 | -0.0114 | 0.0252 | 0.0194 |
| CN(C)CCCOc1ccc(-c2ccc3ncc4c(c3c2)n(C2CCOCC2)c(=O)n4C)cn1 [AZD0156] + C=CCn1c(=O)c2cnc(Nc3ccc(N4CCN(C)CC4)cc3)nc2n1-c1cccc(C(C)(C)O)n1 [AZD1775] (first compound max 1 µM, partner max 1 µM) | 0.039 | -0.0501 | -0.0233 | 0.0215 | -0.118 | -0.0031 | -0.0648 | -0.0262 | 0.007 | 0.026 | 0.0116 | -0.0372 | -0.0402 | -0.0851 | -0.0322 | -0.0036 | -0.0322 | -0.0059 | -0.0616 | -0.0574 |
| C[C@@H]1COCCN1c1cc(C2([S@](C)(=N)=O)CC2)nc(-c2ccnc3[nH]ccc23)n1 [AZD6738] + O=C(c1cc(Cc2n[nH]c(=O)c3ccccc23)ccc1F)N1CCN(C(=O)C2CC2)CC1 [Olaparib] (first compound max 10 µM, 7x7, partner max 10 µM) | -0.0896 | 0.0068 | -0.0152 | 0.0511 | -0.0714 | -0.0971 | 0.0255 | 0.0218 | -0.0255 | -0.0726 | 0.0105 | -0.0708 | 0.0366 | -0.0011 | -0.0553 | 0.0762 | -0.0081 | 0.0222 | -0.0004 | 0.0248 |

Source: the supplement of paper PMC11061612
